This experiment deals with T1, Type-1 angiotensin II receptor A (Rattus norvegicus) (UniProt P25095).
T1 sequence (whole entry): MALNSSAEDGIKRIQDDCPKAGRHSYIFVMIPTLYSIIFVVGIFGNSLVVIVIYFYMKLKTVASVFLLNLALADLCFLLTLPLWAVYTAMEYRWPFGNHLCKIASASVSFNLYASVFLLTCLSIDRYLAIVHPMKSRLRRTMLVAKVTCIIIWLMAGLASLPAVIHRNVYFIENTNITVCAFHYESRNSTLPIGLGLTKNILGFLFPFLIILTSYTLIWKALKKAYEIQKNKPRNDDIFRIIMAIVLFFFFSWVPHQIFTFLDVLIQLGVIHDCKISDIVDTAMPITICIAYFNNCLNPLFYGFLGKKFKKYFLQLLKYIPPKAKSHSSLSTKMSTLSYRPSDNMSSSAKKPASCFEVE
The experiment can be described thus: Antagonist activity at rat AT1 receptor expressed in CHO cells assessed as angiotensin 2-evoked increase in intracellular calcium level. In kind it is functional, cell-based.

In the case of `CCCCc1ncc(/C=C(\Cc2cccs2)C(=O)O)n1Cc1ccc(C(=O)O)cc1`, the negative logarithm of the Kb (pKb) came out at 8.8.

These data come from ChEMBL document CHEMBL1143189.
